Measured values from patent US20150283147A1, “TREATING POLYCYSTIC KIDNEY DISEASE WITH HSP90 INHIBITORY COMPOUNDS” (SYNTA PHARMACEUTICALS CORP., priority 2012, published 2015).
Entries after “also recorded” stand apart in the source; their conditions may differ.

Assays:
[1] = tested on: Kasumi-1 cells; details: Kasumi-1 acute myeloid leukemia cell line with c-Kit mutation; cited from earlier work
[2] = tested on: FLT3 with Hsp90; details: cited from earlier work
[3] = tested on: leukemia cells that express either wild type FLT3 or FLT3-ITD mutations; details: cited from earlier work
[4] = tested on: Her2; test: Degradation of Her2 in BT-474 cells (Method 1, Western blot); assay type: cell-based, Human; details: 0.5 μM, overnight
Experimental: Human high-Her2 breast carcinoma BT474 (HTB-20), SK-BR-3 (HTB-30) and MCF-7 breast carcinoma (HTB-22) from American Type Culture Collection, VA, USA were grown in Dulbecco's modified Eagle's medium with 4 mM L-glutamine and antibiotics (100 IU/ml penicillin and 100 ug/ml streptomycine;GibcoBRL). To obtain exponential cell growth, cells were trypsinized, counted and seeded at a cell density of 0.5×10^6 cells/ml regularly, every 3 days. All experiments were performed on day 1 after cell passage.
BT-474 cells are treated with 0.5 μM, 2 μM, or 5 μM of 17AAG (a positive control) or 0.5 μM, 2 μM, or 5 μM of a compound of the invention overnight in DMEM medium. After treatment, each cytoplasmic sample is prepared from 1×10^6 cells by incubation of cell lysis buffer (#9803, cell Signaling Technology) on ice for 10 minutes. The resulting supernatant used as the cytosol fractions is dissolved with sample buffer for SDS-PAGE and run on a SDS-PAGE gel, blotted onto a nitrocellulose membrane by using semi-dry transfer. Non-specific binding to nitrocellulose is blocked with 5% skim milk in TBS with 0.5% Tween at room temperature for 1 hour, then probed with anti-Her2/ErB2 mAb (rabbit IgG, #2242, Cell Signaling) and anti-Tubulin (T9026, Sigma) as housekeeping control protein. […]

[5] = tested on: Pkd1^−/− mice; test: Cyst formation and kidney growth in conditional Pkd1-/- mice (MRI, kidney weight, cystic index, BUN); assay type: in vivo
Experimental: All experiments involving mice were approved by the Institutional Animal Care and Use Committee of Fox Chase Cancer Center. Conditional Pkd1^−/− mice using the Cre-flox regulatory system for targeted inactivation of the Pkd1 gene in vivo were kindly provided by Gregory Germino (National Institute of Diabetes and Digestive and Kidney Diseases). Pkd1fl/fl;Cre/Esr1+ (referred to as Pkd1^−/−) and control mice (Pkd1fl/fl;Cre/Esr1−; referred to as Control) mice were injected intraperitoneally with tamoxifen (250 mg/kg body weight) on postnatal day P37/P38 (+/−1 day) to induce Pkd1 deletion in the test group.
Compound 111 was formulated in 5% dextrose titrated to pH 4, and administered by tail vein injection in anesthetized mice under sterile conditions using a volume of 10 μl/g body weight. Vehicle treated mice were injected with 5% dextrose only. To investigate the activity of compound 111 on early kidney disease, mice were treated with compound 111 for 5 months, starting 2-3 days after Pkd1 deletion. Treatment began with a weekly schedule up to 4 months of age, including one week off in the 3rd month of age, followed by a bi-weekly schedule from 4 to 6 month of age. 24 hours after the 16th injection, blood samples were collected and the mice were sacrificed to collect organs for histopathological and biochemical analysis. To investigate the activity of compound 111 on Late kidney disease, mice were dosed weekly with compound 111 for 10 weeks starting at 4 months of age. 24 hours after the 11th dose (10 weeks of treatment), blood samples were collected and the mice were sacrificed to collect organs for histopathological and biochemical analysis.
To assess the utility of HSP90 inhibition in ADPKD, Pkd1fl/fl;Cre/Esr1+ (referred to as Pkd1^−/−) and control Pkd1fl/fl;Cre/Esr1− (referred to as control) mice were injected with tamoxifen at 5-6 weeks of age to inactivate the Pkd1 gene. HSP90 was inhibited using compound, a resorcinolic triazole that competitively binds the N-terminal ATP pocket of HSP90. In one cohort of mice (designated Early), mice were dosed from 6 weeks-4 months of age, to assess drug effects on disease initiation (FIG. 1). […] (FIGS. 2-3)
In a second cohort (designated Late), mice were dosed from 4-6 months of age, to assess drug effects on mice with Late cysts, in this case using doses of 50 mg/kg and 100 mg/kg to explore dose range (FIGS. 4-6).
Mice were imaged in a vertical bore MR system at a field strength of 7 Tesla, using a Bruker DRX300 spectrometer, Paravision 3.0.2 software, and a single tuned ^1H cylindrical radiofrequency coil. […]
Using NIH ImageJ, an open source image analysis program, kidney and cyst volume were quantified. […]

Structure (SMILES)	apoptosis [1]	association of FLT3 with Hsp90 [2]	growth of leukemia cells [3]	degradation of Her2 [4]	blood urea nitrogen (BUN) ([5]; Early cohort, 75 mg/kg, blood drawn at euthanasia)	formation of renal cysts and kidney growth ([5]; Early cohort, Pkd1−/− mice, 75 mg/kg, tail vein injection, 5 months)	reduction of cyst volume and kidney growth ([5]; Late cohort, 50 mg/kg and 100 mg/kg, 1×/week for 10 weeks, tail vein injection)	BUN scores ([5]; Late cohort, 100 mg/kg, 10 weeks)
C=CCNC1=C2C[C@@H](C)C[C@H](OC)[C@H](O)[C@@H](C)/C=C(\C)[C@H](OC(N)=O)[C@@H](OC)/C=C\C=C(/C)C(=O)NC(=CC1=O)C2=O [Compound 17AAG]	induce apoptosis	disrupt the association of FLT3 with Hsp90	inhibited	partial degradation	–	–	–	–
CC(C)c1cc(-c2nnc(C(=O)NCCN3CCOCC3)n2-c2ccc(CN3CCOCC3)cc2)c(O)cc1O [Compound 111, 5-(2,4-dihydroxy-5-isopropylphenyl)-N-(2-morpholinoethyl)-4-(4-(morpholinomethyl)phenyl)-4H-1,2,4-triazole-3-carboxamide]	–	–	–	–	trend towards reduction	very significantly reduced; also recorded: inhibited cyst formation, kidney growth	significant, dose-dependent effect; also recorded: reduced cystic burden	reduced BUN scores to normal levels
